Results on 18 compounds are retold here after PubChem BioAssay AID330 (DTP/NCI, 2004).

Values joined by “and” are separate entries in the source; they are usually repeats but may differ in a detail not shown here. Equal entries are not always repeated. Inconclusive results and toxic doses are left out.

The assay has as its system P388 leukemia ip, CD2F1 mice, survival T/C. Briefly: NCI In Vivo Anticancer Drug Screen. Data for tumor model P388 Leukemia (intraperitoneal) in CD2F1 (CDF1) mice. The conditions noted are these: endpoint: median survival time, higher = longer survival. The gist of the method:
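Mice carrying the transplanted tumor received test compound or vehicle. Survival was recorded in each group, and the value is the treated-group measurement divided by that of the vehicle-treated control group.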

Where [1] appears, read: dose: 60.0 mg/kg/injection, schedule: Q01DX005 (ip), vehicle: saline with Tween-80.
Setting [2] is: dose: 120.0 mg/kg/injection, schedule: Q01DX005 (ip), vehicle: saline with Tween-80.
[3] abbreviates: dose: 240.0 mg/kg/injection, schedule: Q01DX005 (ip), vehicle: saline with Tween-80.
[4] abbreviates: dose: 60.0 mg/kg/injection, schedule: Q01DX005 (ip), vehicle: saline.
Setting [5] is: dose: 120.0 mg/kg/injection, schedule: Q01DX005 (ip), vehicle: saline.
The mark [6] stands for this setting: dose: 100.0 mg/kg/injection, schedule: Q04DX003 (ip), vehicle: saline.
[7] abbreviates: dose: 200.0 mg/kg/injection, schedule: Q04DX003 (ip), vehicle: saline.
[8] abbreviates: dose: 400.0 mg/kg/injection, schedule: Q04DX003 (ip), vehicle: saline.

In the case of `COC(=O)/C=C/CNC(C)C`, the T/C (dose: 25.0 mg/kg/injection, schedule: Q01DX009 (ip), vehicle: water) is 101 % of control; the T/C (dose: 50.0 mg/kg/injection, schedule: Q01DX009 (ip), vehicle: water) is 99 % of control; the T/C (dose: 100.0 mg/kg/injection, schedule: Q01DX009 (ip), vehicle: water) was 108 % of control; the T/C (dose: 200.0 mg/kg/injection, schedule: Q01DX009 (ip), vehicle: water) is 115 % of control; the T/C (dose: 400.0 mg/kg/injection, schedule: Q01DX009 (ip), vehicle: water) was 97 % of control.

Take `Cn1cc(O)c(=O)n(C)c1=O`: the T/C is 99 % of control (dose: 100.0 mg/kg/injection, schedule: Q04DX003 (ip), vehicle: saline with Tween-80); 105 % of control (dose: 200.0 mg/kg/injection, schedule: Q04DX003 (ip), vehicle: saline with Tween-80); 100 % of control (dose: 400.0 mg/kg/injection, schedule: Q04DX003 (ip), vehicle: saline with Tween-80).

Regarding `CCC1=NO[C@@H](C)[C@H]1C(=O)OCc1ccccc1`, the T/C was 106 % of control under setting [1], 100 % of control under setting [2] and 97 % of control under setting [3].

As to `Cc1ccc([N+](=O)[O-])cc1NC(=O)Nc1onc(C)c1C`, the T/C is, setting by setting: under setting [1], 87 % of control; under setting [2], 93 % of control; under setting [3], 88 % of control.

Turning to `COC(=O)c1cc(C=C(C)C)[nH]c(=O)c1C#N`, the T/C runs as follows: (dose: 30.0 mg/kg/injection, schedule: Q01DX005 (ip), vehicle: saline) 99 % of control; under setting [4], 100 % of control and 107 % of control; under setting [5], 107 % of control.

Regarding `Brc1ccc(C[N+]23CN4CN(CN(C4)C2)C3)cc1`, the T/C was 100 % of control (dose: 50.0 mg/kg/injection, schedule: Q01DX009 (ip), vehicle: saline with Tween-80); 120 % of control (dose: 100.0 mg/kg/injection, schedule: Q01DX009 (ip), vehicle: saline with Tween-80); 110 % of control under setting [6]; 110 % of control under setting [7].

Regarding `CN(C)C1C(=O)c2ccccc2C1=O`, the T/C under setting [1] was 96 % of control, the T/C under setting [2] was 107 % of control and the T/C under setting [3] is 112 % of control.

In the case of `CC(N=Cc1cccs1)c1ccccc1` (stereo not drawn), the T/C was 98 % of control under setting [6], 95 % of control under setting [7] and 99 % of control under setting [8].

Turning to `CCCSC(=O)Nc1ccc(Cc2ccc(NC(=O)SCCC)cc2)cc1`, the T/C under setting [1] was 90 % of control, the T/C under setting [2] was 87 % of control and the T/C under setting [3] is 99 % of control.

As for `COc1ccc([C@@H]2c3cc4c(cc3C[C@H]3COC(=O)[C@@H]32)OCO4)cc1OC`, the T/C was 108 % of control (dose: 25.0 mg/kg/injection, schedule: Q04DX002 (ip), vehicle: Klucel (hydroxypropylcellulose) (HPC)) and 124 % of control (dose: 100.0 mg/kg/injection, schedule: Q04DX002 (ip), vehicle: Klucel (hydroxypropylcellulose) (HPC)).

With `CC1C(=O)OCC1(C)O` (stereo not drawn), the T/C by setting is: under setting [4], 107 % of control; under setting [5], 103 % of control; (dose: 240.0 mg/kg/injection, schedule: Q01DX005 (ip), vehicle: saline) 109 % of control.

Turning to `O=C(On1nnc2ccccc2c1=O)c1ccccc1`, the T/C was 100 % of control (dose: 12.5 mg/kg/injection, schedule: Q01DX009 (ip), vehicle: distilled water + Tween-80); 102 % of control (dose: 25.0 mg/kg/injection, schedule: Q01DX009 (ip), vehicle: distilled water + Tween-80); 94 % of control (dose: 50.0 mg/kg/injection, schedule: Q01DX009 (ip), vehicle: distilled water + Tween-80); 106 % of control (dose: 100.0 mg/kg/injection, schedule: Q01DX009 (ip), vehicle: distilled water + Tween-80); 103 % of control (dose: 200.0 mg/kg/injection, schedule: Q01DX009 (ip), vehicle: distilled water + Tween-80).

`N=[N+]=CC(=O)CC(N)C(=O)O` (stereo not drawn): the T/C (dose: 100.0 mg/kg/injection, schedule: Q01DX009 (ip), vehicle: saline) was 117 % of control; the T/C under setting [6] was 92 % of control; the T/C under setting [7] was 100 % of control; the T/C under setting [8] is 100 % of control.

On to `O=C(NC1c2ccccc2Oc2ccccc21)c1ccc([N+](=O)[O-])cc1`, for which the T/C is 102 % of control (dose: 50.0 mg/kg/injection, schedule: Q01DX005 (ip), vehicle: saline with Tween-80); 93 % of control (dose: 100.0 mg/kg/injection, schedule: Q01DX005 (ip), vehicle: saline with Tween-80); 91 % of control (dose: 200.0 mg/kg/injection, schedule: Q01DX005 (ip), vehicle: saline with Tween-80).

Regarding `O=C(O)CSCC(=O)Nc1cc(C(F)(F)F)cc(C(F)(F)F)c1`, the T/C was 95 % of control (dose: 60.0 mg/kg/injection, schedule: Q01DX005 (ip), vehicle: Klucel (hydroxypropylcellulose) (HPC)); 98 % of control (dose: 120.0 mg/kg/injection, schedule: Q01DX005 (ip), vehicle: Klucel (hydroxypropylcellulose) (HPC)); 113 % of control (dose: 240.0 mg/kg/injection, schedule: Q01DX005 (ip), vehicle: Klucel (hydroxypropylcellulose) (HPC)).

Consider `N#CN=C(N)N=P(c1ccccc1)(c1ccccc1)c1ccccc1`, for which the T/C by setting is: (dose: 100.0 mg/kg/injection, schedule: Q01DX001 (ip), vehicle: Klucel (hydroxypropylcellulose) (HPC)) 97 % of control; (dose: 200.0 mg/kg/injection, schedule: Q01DX001 (ip), vehicle: Klucel (hydroxypropylcellulose) (HPC)) 100 % of control; (dose: 400.0 mg/kg/injection, schedule: Q01DX001 (ip), vehicle: Klucel (hydroxypropylcellulose) (HPC)) 91 % of control.

In the case of `Nc1nc2c(c(=O)[nH]1)[N+]1=CN(c3ccc(C(=O)NC(CCC(=O)O)C(=O)O)cc3)CC1CC2` (stereo not drawn), the T/C was 96 % of control (dose: 50.0 mg/kg/injection, schedule: Q01DX001 (ip), vehicle: saline); 97 % of control (dose: 50.0 mg/kg/injection, schedule: Q04DX003 (ip), vehicle: saline); 94 % of control (dose: 100.0 mg/kg/injection, schedule: Q01DX001 (ip), vehicle: saline); 100 % of control under setting [6]; 94 % of control (dose: 200.0 mg/kg/injection, schedule: Q01DX001 (ip), vehicle: saline); 96 % of control under setting [7].

Turning to `CCCCC(=O)N(c1ccc(Nc2c3ccccc3nc3cc([N+](=O)[O-])ccc23)cc1)S(C)(=O)=O`, the T/C reads like this: (dose: 0.07 mg/kg/injection, schedule: Q01DX009 (ip), vehicle: saline with Tween-80) 107 % of control; (dose: 0.1 mg/kg/injection, schedule: Q01DX009 (ip), vehicle: saline with Tween-80) 107 % of control; (dose: 0.15 mg/kg/injection, schedule: Q01DX009 (ip), vehicle: saline with Tween-80) 105 % of control; (dose: 0.23 mg/kg/injection, schedule: Q01DX009 (ip), vehicle: saline with Tween-80) 123 % of control; (dose: 0.44 mg/kg/injection, schedule: Q04DX003 (ip), vehicle: saline with Tween-80) 112 % of control; (dose: 0.66 mg/kg/injection, schedule: Q04DX003 (ip), vehicle: saline with Tween-80) 113 % of control. Also, the T/C by setting is: (dose: 1.0 mg/kg/injection, schedule: Q04DX003 (ip), vehicle: saline with Tween-80) 119 % of control; (dose: 2.5 mg/kg/injection, schedule: Q01DX009 (ip), vehicle: saline with Tween-80) 188 % of control; (dose: 4.4 mg/kg/injection, schedule: Q04DX003 (ip), vehicle: saline with Tween-80) 154 % of control; (dose: 5.0 mg/kg/injection, schedule: Q01DX009 (ip), vehicle: saline with Tween-80) 227 % of control; (dose: 6.6 mg/kg/injection, schedule: Q04DX003 (ip), vehicle: saline with Tween-80) 159 % of control; (dose: 9.38 mg/kg/injection, schedule: Q01DX009 (ip), vehicle: saline with Tween-80) 227 % of control. The T/C reads like this: (dose: 10.0 mg/kg/injection, schedule: Q01DX009 (ip), vehicle: saline with Tween-80) 254 % of control; (dose: 10.0 mg/kg/injection, schedule: Q04DX003 (ip), vehicle: saline with Tween-80) 168 % of control; (dose: 10.8 mg/kg/injection, schedule: Q04DX003 (ip), vehicle: water) 153 % of control; (dose: 15.0 mg/kg/injection, schedule: Q04DX003 (ip), vehicle: saline with Tween-80) 186 % of control; (dose: 18.0 mg/kg/injection, schedule: Q04DX003 (ip), vehicle: water) 162 % of control; (dose: 30.0 mg/kg/injection, schedule: Q04DX003 (ip), vehicle: water) 180 % of control. Further, the T/C (dose: 50.0 mg/kg/injection, schedule: Q04DX003 (ip), vehicle: water) is 171 % of control.
